The target in assay [1] is T1, Vascular endothelial growth factor receptor 2 (Homo sapiens, UniProt P35968). In words: Inhibition of KDR expressed in baculovirus system at 4 ug/ml by ELISA.
The target of assay [2] is Tyrosine-protein kinase ABL1 (Homo sapiens, UniProt P00519). Put plainly: Inhibition of ABL expressed in baculovirus system by ELISA.
Assay [3] concerns the target T1, Vascular endothelial growth factor receptor 2. Put plainly: Inhibition of KDR expressed in baculovirus system by ELISA.

Experimental findings from ChEMBL document CHEMBL1140887, “Synthesis of novel 1,4-benzoxazin-3-one derivatives as inhibitors against tyrosine kinases” (Bioorg Med Chem, 2009) are described below.

Tyrosine-protein kinase ABL1, sequence (P00519 whole entry): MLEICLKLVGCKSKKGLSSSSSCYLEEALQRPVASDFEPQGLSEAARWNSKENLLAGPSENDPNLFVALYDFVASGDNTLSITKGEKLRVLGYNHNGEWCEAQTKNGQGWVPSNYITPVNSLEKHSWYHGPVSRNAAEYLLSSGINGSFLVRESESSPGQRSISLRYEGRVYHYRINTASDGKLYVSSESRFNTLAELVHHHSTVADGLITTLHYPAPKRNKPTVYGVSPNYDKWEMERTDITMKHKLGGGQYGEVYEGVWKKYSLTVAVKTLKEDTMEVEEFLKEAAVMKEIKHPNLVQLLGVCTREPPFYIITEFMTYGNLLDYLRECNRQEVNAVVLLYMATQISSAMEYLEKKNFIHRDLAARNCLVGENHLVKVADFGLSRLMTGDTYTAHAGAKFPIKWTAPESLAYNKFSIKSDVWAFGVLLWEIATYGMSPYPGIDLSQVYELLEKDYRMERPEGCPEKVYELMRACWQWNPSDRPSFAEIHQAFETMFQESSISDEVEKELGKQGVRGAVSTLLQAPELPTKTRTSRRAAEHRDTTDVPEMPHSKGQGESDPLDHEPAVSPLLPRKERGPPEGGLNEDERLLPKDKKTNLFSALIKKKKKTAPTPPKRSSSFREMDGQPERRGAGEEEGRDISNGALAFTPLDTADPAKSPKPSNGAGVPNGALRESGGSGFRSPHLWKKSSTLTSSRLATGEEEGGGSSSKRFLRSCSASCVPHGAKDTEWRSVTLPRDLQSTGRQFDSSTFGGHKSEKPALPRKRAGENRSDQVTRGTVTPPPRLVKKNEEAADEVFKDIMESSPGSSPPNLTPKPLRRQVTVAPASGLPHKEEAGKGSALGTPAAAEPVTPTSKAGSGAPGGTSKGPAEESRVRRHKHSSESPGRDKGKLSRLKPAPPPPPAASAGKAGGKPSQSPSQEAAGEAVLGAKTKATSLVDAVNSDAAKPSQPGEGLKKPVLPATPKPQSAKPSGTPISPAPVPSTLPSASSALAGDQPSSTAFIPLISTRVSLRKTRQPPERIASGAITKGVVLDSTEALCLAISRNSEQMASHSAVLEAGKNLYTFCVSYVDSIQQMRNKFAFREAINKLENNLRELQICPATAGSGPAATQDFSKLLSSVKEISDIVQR
T1 sequence (P35968 whole entry): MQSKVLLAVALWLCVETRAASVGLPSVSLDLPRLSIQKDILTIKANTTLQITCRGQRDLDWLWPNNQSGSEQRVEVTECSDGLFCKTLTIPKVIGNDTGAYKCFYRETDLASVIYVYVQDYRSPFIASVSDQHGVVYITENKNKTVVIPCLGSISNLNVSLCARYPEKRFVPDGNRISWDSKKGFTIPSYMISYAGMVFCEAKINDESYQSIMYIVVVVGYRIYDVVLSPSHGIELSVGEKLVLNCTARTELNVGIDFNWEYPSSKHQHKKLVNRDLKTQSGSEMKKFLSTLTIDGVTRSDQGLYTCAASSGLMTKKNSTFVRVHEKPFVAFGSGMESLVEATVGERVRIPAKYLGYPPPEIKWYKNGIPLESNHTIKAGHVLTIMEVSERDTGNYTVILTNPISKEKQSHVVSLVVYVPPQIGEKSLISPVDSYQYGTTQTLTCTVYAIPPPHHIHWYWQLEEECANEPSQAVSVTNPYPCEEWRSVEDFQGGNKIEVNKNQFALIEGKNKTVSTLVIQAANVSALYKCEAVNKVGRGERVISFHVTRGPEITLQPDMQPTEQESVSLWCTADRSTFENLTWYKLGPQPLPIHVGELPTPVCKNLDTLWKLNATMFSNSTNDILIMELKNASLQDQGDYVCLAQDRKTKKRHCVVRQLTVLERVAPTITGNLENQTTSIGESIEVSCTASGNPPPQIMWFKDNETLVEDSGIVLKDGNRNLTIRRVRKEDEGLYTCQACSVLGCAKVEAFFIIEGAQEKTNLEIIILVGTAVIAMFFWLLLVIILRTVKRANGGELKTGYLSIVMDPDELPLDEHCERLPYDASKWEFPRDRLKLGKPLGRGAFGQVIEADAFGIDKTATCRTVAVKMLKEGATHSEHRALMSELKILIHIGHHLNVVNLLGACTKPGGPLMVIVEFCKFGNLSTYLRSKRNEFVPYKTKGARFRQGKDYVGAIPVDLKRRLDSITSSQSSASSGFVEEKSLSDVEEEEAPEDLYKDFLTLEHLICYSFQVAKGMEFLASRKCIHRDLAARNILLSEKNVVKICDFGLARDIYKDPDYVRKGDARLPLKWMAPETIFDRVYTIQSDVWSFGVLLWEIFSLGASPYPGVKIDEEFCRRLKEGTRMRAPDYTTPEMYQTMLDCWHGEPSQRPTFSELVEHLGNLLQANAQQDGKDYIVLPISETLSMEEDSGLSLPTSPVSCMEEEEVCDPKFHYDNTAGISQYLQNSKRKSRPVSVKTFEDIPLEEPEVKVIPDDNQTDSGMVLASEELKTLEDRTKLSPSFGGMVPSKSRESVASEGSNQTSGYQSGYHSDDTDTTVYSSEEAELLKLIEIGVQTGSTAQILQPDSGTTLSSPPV

For `CN1C(=O)/C(=C/c2ccc(/C=C/C(=O)N3CCCC3)s2)Oc2ccccc21`, the inhibition in assay [1] was 79.2%.
On to `O=C(/C=C/c1cccc(/C=C2\Oc3ccccc3NC2=O)c1)NCc1ccccn1`, for which the half-inhibitory concentration (IC50) in assay [2] is more than 1010 nM.
Consider `CN1C(=O)/C(=C/c2ccc(/C=C/C(=O)N3CCN(CCO)CC3)s2)Oc2ccccc21`, for which the inhibition in assay [1] was 88.3%.
In turn, `O=C1Nc2ccccc2O/C1=C\c1cc(/C=C/C(=O)N2CCCC2)cs1` yielded a half-maximal inhibitory concentration (IC50) in assay [2] of more than 1090 nM.
For the molecule `O=C1Nc2ccccc2O/C1=C\c1ccc(/C=C/C(=O)N2CCCC2)o1`, the IC50 in assay [2] was more than 1140 nM.
`CN(C)CCNC(=O)/C=C/c1ccc(/C=C2\Oc3ccccc3N(C)C2=O)s1` had an inhibition in assay [1] of 83.9%. In assay [2], this molecule came in with an IC50 of 820 nM.
The molecule `CN(C)CCNC(=O)/C=C/c1cccc(/C=C2\Oc3ccccc3NC2=O)c1` displayed an inhibition in assay [1] of 70.8%.
On to `O=C(/C=C/c1ccc(/C=C2\Oc3ccccc3NC2=O)s1)NCc1ccccn1`, for which the IC50 in assay [2] was more than 991 nM.
`CN1C(=O)/C(=C/c2ccc(/C=C/C(=O)NCc3ccncc3)s2)Oc2ccccc21` came in with an inhibition in assay [1] of 77.1%. Moreover, in assay [2], 1760 nM corresponded to half-maximal inhibition (IC50).
In the case of `CN1C(=O)/C(=C/c2cccc(/C=C/C(=O)Nc3ccc(N4CCOCC4)cc3)c2)Oc2ccccc21`, the inhibition in assay [1] stood at 79.9%.
The molecule `O=C(/C=C/c1ccc(/C=C2\Oc3ccccc3NC2=O)s1)Nc1ccc(N2CCOCC2)cc1` showed an IC50 in assay [2] of 290 nM.
Same read-out and setting: the same measure for `CN(C)CCNC(=O)/C=C/c1csc(/C=C2\Oc3ccccc3NC2=O)c1`: more than 1040 nM.
Take `O=C1Nc2ccccc2O/C1=C\c1ccc(/C=C/C(=O)N2CCN(CCO)CC2)o1`: in assay [1], the inhibition came out at 76.7%.
In assay [1], `CN1C(=O)/C(=C/c2ccc(/C=C/C(=O)NCc3cccnc3)s2)Oc2ccccc21` returned an inhibition of 76.7%. In addition, the IC50 in assay [3] came out at 1480 nM; in assay [2], 1900 nM.
